Measured values published in ChEMBL document CHEMBL6071198, “Advances in Cancer Treatment and Monitoring: Insights from KRAS Inhibitors and Germline Epitope Burden Monitoring” (ACS Med Chem Lett, 2024).

How the values were obtained:
[1] = molecular target: GTPase KRas/RAF1 (Homo sapiens, UniProt P01116); experiment: Inhibition of biotinylated wild type KRAS (1 to 169 residues) (unknown origin)/CRAF RBD (unknown origin) protein-protein interaction preincubated for 60 mins followed by SOS1 and GTPgs addition measured after 60 mins by FRET assay
[2] = Inhibition of biotinylated KRAS G12D mutant (unknown origin)/CRAF RBD (unknown origin) protein-protein interaction preincubated for 60 mins followed by SOS1 and GTPgs addition measured after 60 mins by FRET assay; set-up: species or system Homo sapiens

| SMILES | IC50 [1] [nM] | IC50 [2] [nM] |
| --- | --- | --- |
| C[C@H](NC(=O)[C@H]1C[C@@H](O)CN1C(=O)[C@@H](NC(=O)CCOCCCN1CCC[C@H]1COc1nc(N2CC3CCC(C2)N3)c2cc(Cl)c(-c3ccc(F)c4sc(N)c(C#N)c34)c(F)c2n1)C(C)(C)C)c1ccc(-c2c(F)cccc2F)cc1 | 77.7 | 7.67 |
| C[C@H](NC(=O)[C@H]1C[C@@H](O)CN1C(=O)[C@@H](NC(=O)CCOCCCN1CCC[C@H]1COc1nc(N2CC3CCC(C2)N3)c2cc(C(F)(F)F)c(-c3ccc(F)c4sc(N)c(C#N)c34)c(F)c2n1)C(C)(C)C)c1ccc(-c2c(F)cccc2F)cc1 | 26.9 | 8.52 |
| Cc1ncsc1-c1ccc([C@H](C)NC(=O)[C@H]2C[C@@H](O)CN2C(=O)[C@@H](NC(=O)CCOCCCN2CCC[C@H]2COc2nc(N3CC4CCC(C3)N4)c3cnc(-c4cc(O)cc5cccc(F)c45)c(F)c3n2)C(C)(C)C)cc1 | 158 | 8.21 |
| C#Cc1c(F)ccc2cc(O)cc(-c3ncc4c(N5CC6CCC(C5)N6)nc(OC[C@@H]5CCCN5CCCOCCC(=O)N[C@H](C(=O)N5C[C@H](O)C[C@@H]5C(=O)N[C@@H](C)c5ccc(-c6c(F)cccc6F)cc5)C(C)(C)C)nc4c3F)c12 | 41.9 | 9.4 |
| C#Cc1c(F)ccc2cc(O)cc(-c3ncc4c(N5CC6CCC(C5)N6)nc(OC[C@@H]5CCCN5CCCOCCC(=O)N[C@H](C(=O)N5C[C@H](O)C[C@@H]5C(=O)N[C@@H](C)c5ccc(-c6ccncc6C#N)cc5)C(C)(C)C)nc4c3F)c12 | 24.2 | 7.93 |
| Cc1ncsc1-c1ccc([C@H](C)NC(=O)[C@H]2C[C@@H](O)CN2C(=O)[C@@H](NC(=O)CCOCCCN2CCC[C@H]2COc2nc(N3CC4CCC(C3)N4)c3cc(Cl)c(-c4ccc(F)c5sc(N)c(C#N)c45)c(F)c3n2)C(C)(C)C)cc1 | 25.9 | 8.18 |
